{
  "source": "patent US4029731A",
  "about": "“Aminophenyltetralin compounds” (Pfizer Inc., priority 1976, dated 1977)",
  "key": {"[1]": {"system": "reserpine-induced hypothermia in the mouse", "test": "Reversal of reserpine-induced hypothermia in the mouse", "format": "in vivo", "conditions": "32 mg./kg. i.p., 2 hours after dosing; reserpine 2 mg./kg. s.c. 18 hours before; saline control 25.1° ± 3.2° C.", "protocol": "The 1-amino-4-phenyltetraline final products of Examples III-IX were tested for antidepressant activity by measuring their ability to reverse reserpine-induced hypothermia in the mouse according to the procedure described by B.M. Askew in Life Science, Vol. 2, p. 725 (1963). In this test, all the animals were individually housed in plastic chambers with a cardboard bottom. The mice were injected with reserpine subcutaneously at 2 mg./kg. and retained at an ambient temperature of 20° C. for a period of 18 hours. At this point, their rectal temperatures were initially ascertained and immediately thereafter they were divided into groups of 5-20 animals for testing purposes. Each group then received either saline as a control or the compound to be tested at a dose level of 32 mg./kg., administered intraperitoneally, and the resulting rectal temperatures were measured two hours later. In the table below, the entries are reported as mean rectal temperatures for each compound at the 2-hour mark, together with the number of animals tested in each particular group."}, "[2]": {"system": "norepinephrine (H^3 NE) uptake into the rat heart", "test": "Blockade of tritium-labeled norepinephrine (H^3 NE) uptake into the rat heart in vivo", "conditions": "32 μmoles/kg. (8.8 mg./kg.) i.p. 20 minutes before i.v. dl-H^3 NE, each entry a mean from a separate experiment", "protocol": "The 1-amino-4-phenyltetralin final products of Examples IV-V and VIII-IX were tested for antidepressant activity by measuring their ability to block tritium-labeled norepinephrine (H^3 NE) uptake into the rat heart in vivo. For these particular studies, rats in groups of five were pretreated with the control vehicle or the drug to be administered at 32 μmoles/kg. (8.8 mg./kg.), via the intraperitoneal route, followed 20 minutes later by intravenous injection of dl-H^3 NE (having a specific activity of 9.5 c/mmole) at a dose level of 5 μc/kg. The rats were then sacrificed one hour ater administration of said agent (H^3 NE), and the norepinephrine (NE) content present in the heart was subsequently isolated therefrom by means of extraction with alumina, followed by repeated elution of said alumina extracts with 0.05N aqueous hydrochloric acid. The specific activity (cpm/μg.) of H^3 NE in the heart was then determined by measuring the amount of radioactivity (using a liquid scintillation counter) and the NE content (fluorimetrically via an Auto-Analyzer of the type manufactured by the Technicon Instruments Corporation of Chauncey, N.Y.) of the aforesaid aqueous eluates. The results obtained in this manner are presented below in the following table, where the individual entries are each made from a separate experiment and constitute mean relative specific activities expressed in terms of percent control: […]"}, "[3]": {"system": "spontaneous motor activity in mice", "test": "Spontaneous motor activity in mice (actophotometer activity counts)", "format": "in vivo", "conditions": "for hyperactive response: same conditions, 0.32, 1.0, 3.2, 10 and 32 mg./kg.", "protocol": "A total of seven mice was employed at each dose level tested (viz., at 0.32, 1.0, 3.2, 10 and 32 mg./kg., i.p., respectively) and these mice were separated one to an activity cage. After an initial one-half hour exposure period (for acclimation purposes), each animal in the cage was treated with a sample of the drug intraperitoneally and immediately thereafter returned to said cage, with activity counts every one-half hour being recorded from that point on."}, "[4]": {"system": "norepinephrine uptake into both rat heart and rat brain; reserpine hypothermia in mice", "test": "Antidepressant activity (norepinephrine uptake into rat heart and rat brain in vivo; reversal of reserpine hypothermia in mice)", "conditions": "base and hydrochloride acid addition salts", "protocol": "The activity of the compounds of the present invention as antidepressants is determined by a study of their ability to supress norepinephrine uptake into both rat heart and rat brain (in vivo), together with a determination of their ability to bring about a reversal of reserpine hypothermia in mice."}},
  "note": "Several values for one entry are separate records, joined by “and”; a condition that tells them apart may be missing. Equal values may be shown once. Where a name gives a salt, the structure may show the parent alone.",
  "data": [
    {"molecule": "CN[C@H]1CC[C@@H](c2ccccc2)c2ccccc21", "note": "(relative stereo) [Cis-isomer of Example IV, cis-dl-N-methyl-4-phenyl-1,2,3,4-tetrahydro-1-naphthylamine hydrochloride]", "values": [
      {"measurement": "Mean Rectal Temperature, Temp. (° C.) ±S.D.", "setting": "[1]", "value": "27.0 ± 3.4", "unit": "°C"},
      {"measurement": "Sp. Activity of Heart H^3 NE (% Control)", "setting": "[2]; hydrochloride", "value": "87 % Control and 104 % Control"}
    ]},
    {"molecule": "N[C@H]1CC[C@@H](c2ccccc2)c2ccccc21", "note": "(relative stereo) [Cis-isomer of Example IX, cis-dl-4-phenyl-1,2,3,4-tetrahydro-1-naphthylamine hydrochloride]", "values": [
      {"measurement": "Mean Rectal Temperature, Temp. (° C.) ±S.D.", "setting": "[1]", "value": "30.8 ± 2.6", "unit": "°C"},
      {"measurement": "Sp. Activity of Heart H^3 NE (% Control)", "setting": "[2]", "value": 93, "unit": "% Control"}
    ]},
    {"molecule": "CCN[C@H]1CC[C@@H](c2ccccc2)c2ccccc21", "note": "(relative stereo) [Cis-isomer of Example V, cis-dl-N-ethyl-4-phenyl-1,2,3,4-tetrahydro-1-naphthylamine hydrochloride]", "values": [
      {"measurement": "Mean Rectal Temperature, Temp. (° C.) ±S.D.", "setting": "[1]", "value": "28.0 ± 2.3", "unit": "°C"},
      {"measurement": "Sp. Activity of Heart H^3 NE (% Control)", "setting": "[2]", "value": 144, "unit": "% Control"}
    ]},
    {"molecule": "CC(C)N[C@H]1CC[C@@H](c2ccccc2)c2ccccc21", "note": "(relative stereo) [Cis-isomer of Example VI, cis-dl-N-isopropyl-4-phenyl-1,2,3,4-tetrahydro-1-naphthylamine hydrochloride]", "values": [
      {"measurement": "Mean Rectal Temperature, Temp. (° C.) ±S.D.", "setting": "[1]", "value": "27.3 ± 3.6", "unit": "°C"}
    ]},
    {"molecule": "c1ccc([C@@H]2CC[C@H](NC3CC3)c3ccccc32)cc1", "note": "(relative stereo) [Cis-isomer of Example VII, cis-dl-N-cyclopropyl-4-phenyl-1,2,3,4-tetrahydro-1-naphthylamine hydrochloride]", "values": [
      {"measurement": "Mean Rectal Temperature, Temp. (° C.) ±S.D.", "setting": "[1]", "value": "25.3 ± 4.4", "unit": "°C"}
    ]},
    {"molecule": "CN(C)[C@H]1CC[C@@H](c2ccccc2)c2ccccc21", "note": "(relative stereo) [Cis-isomer of Example VIII, cis-dl-N,N-dimethyl-4-phenyl-1,2,3,4-tetrahydro-1-naphthylamine hydrochloride]", "values": [
      {"measurement": "Mean Rectal Temperature, Temp. (° C.) ±S.D.", "setting": "[1]", "value": "31.4 ± 2.4", "unit": "°C"},
      {"measurement": "Sp. Activity of Heart H^3 NE (% Control)", "setting": "[2]", "value": 120, "unit": "% Control"}
    ]},
    {"molecule": "CN[C@@H]1CC[C@@H](c2ccccc2)c2ccccc21", "note": "(relative stereo) [Trans-isomer of Example IV, trans-dl-N-methyl-4-phenyl-1,2,3,4-tetrahydro-1-naphthylamine hydrochloride]", "values": [
      {"measurement": "Mean Rectal Temperature, Temp. (° C.) ±S.D.", "setting": "[1]", "value": "33.5 ± 1.5", "unit": "°C"},
      {"measurement": "Sp. Activity of Heart H^3 NE (% Control)", "setting": "[2]; hydrochloride", "value": "14 % Control and 19 % Control and 21 % Control and 25 % Control"},
      {"measurement": "time course / duration of effect", "setting": "[3]; 32 mg./kg. i.p.", "value": "especially long-lived"},
      {"measurement": "potency compared with dextrorotatory isomer", "setting": "[3]; i.p., spontaneous motor activity", "value": "somewhat less potent than the aforesaid dextrorotatory isomer"}
    ]},
    {"molecule": "Cl.N[C@@H]1CC[C@@H](c2ccccc2)c2ccccc21", "note": "(relative stereo) [Trans-isomer of Example IX, trans-4-phenyl-1,2,3,4-tetrahydro-1-naphthylamine hydrochloride]", "values": [
      {"measurement": "Mean Rectal Temperature, Temp. (° C.) ±S.D.", "setting": "[1]", "value": "31.8 ± 2.5", "unit": "°C"},
      {"measurement": "Sp. Activity of Heart H^3 NE (% Control)", "setting": "[2]; hydrochloride", "value": "60 % Control and 66 % Control"}
    ]},
    {"molecule": "CCN[C@@H]1CC[C@@H](c2ccccc2)c2ccccc21", "note": "(relative stereo) [Trans-isomer of Example V, trans-dl-N-ethyl-4-phenyl-1,2,3,4-tetrahydro-1-naphthylamine hydrochloride]", "values": [
      {"measurement": "Mean Rectal Temperature, Temp. (° C.) ±S.D.", "setting": "[1]", "value": "33.5 ± 0.9", "unit": "°C"},
      {"measurement": "Sp. Activity of Heart H^3 NE (% Control)", "setting": "[2]; hydrochloride", "value": "71 % Control and 75 % Control"}
    ]},
    {"molecule": "CC(C)N[C@@H]1CC[C@@H](c2ccccc2)c2ccccc21", "note": "(relative stereo) [Trans-isomer of Example VI, trans-dl-N-isopropyl-4-phenyl-1,2,3,4-tetrahydro-1-naphthylamine hydrochloride]", "values": [
      {"measurement": "Mean Rectal Temperature, Temp. (° C.) ±S.D.", "setting": "[1]", "value": "32.6 ± 0.7", "unit": "°C"}
    ]},
    {"molecule": "c1ccc([C@@H]2CC[C@@H](NC3CC3)c3ccccc32)cc1", "note": "(relative stereo) [Trans-isomer of Example VII, trans-dl-N-cyclopropyl-4-phenyl-1,2,3,4-tetrahydro-1-naphthylamine hydrochloride]", "values": [
      {"measurement": "Mean Rectal Temperature, Temp. (° C.) ±S.D.", "setting": "[1]", "value": "32.6 ± 0.7", "unit": "°C"}
    ]},
    {"molecule": "CN(C)[C@@H]1CC[C@@H](c2ccccc2)c2ccccc21", "note": "(relative stereo) [Trans-isomer of Example VIII, trans-dl-N,N-dimethyl-4-phenyl-1,2,3,4-tetrahydro-1-naphthylamine hydrochloride]", "values": [
      {"measurement": "Mean Rectal Temperature, Temp. (° C.) ±S.D.", "setting": "[1]", "value": "33.5 ± 1.4", "unit": "°C"},
      {"measurement": "Sp. Activity of Heart H^3 NE (% Control)", "setting": "[2]", "value": 49, "unit": "% Control"}
    ]},
    {"molecule": "N[C@@H]1CC[C@@H](c2ccccc2)c2ccccc21", "note": "(relative stereo) [trans-dl-4-phenyl-1,2,3,4-tetrahydro-1-naphthylamine]", "values": [
      {"measurement": "degree of antidepressant activity", "setting": "[4]", "value": "markedly high degree of antidepressant activity"}
    ]},
    {"molecule": "CN(C)[C@@H]1CC[C@@H](c2ccccc2)c2ccccc21", "note": "(relative stereo) [trans-dl-N,N-dimethyl-4-phenyl-1,2,3,4-tetrahydro-1-naphthylamine]", "values": [
      {"measurement": "degree of antidepressant activity", "setting": "[4]", "value": "markedly high degree of antidepressant activity"}
    ]},
    {"molecule": "c1ccc([C@@H]2CC[C@@H](NC3CC3)c3ccccc32)cc1", "note": "(relative stereo) [trans-dl-N-cyclopropyl-4-phenyl-1,2,3,4-tetrahydro-1-naphthylamine]", "values": [
      {"measurement": "degree of antidepressant activity", "setting": "[4]", "value": "markedly high degree of antidepressant activity"}
    ]},
    {"molecule": "CCN[C@@H]1CC[C@@H](c2ccccc2)c2ccccc21", "note": "(relative stereo) [trans-dl-N-ethyl-4-phenyl-1,2,3,4-tetrahydro-1-naphthylamine]", "values": [
      {"measurement": "degree of antidepressant activity", "setting": "[4]", "value": "markedly high degree of antidepressant activity"}
    ]},
    {"molecule": "CC(C)N[C@@H]1CC[C@@H](c2ccccc2)c2ccccc21", "note": "(relative stereo) [trans-dl-N-isopropyl-4-phenyl-1,2,3,4-tetrahydro-1naphthylamine]", "values": [
      {"measurement": "degree of antidepressant activity", "setting": "[4]", "value": "markedly high degree of antidepressant activity"}
    ]},
    {"molecule": "CN[C@H]1CC[C@H](c2ccccc2)c2ccccc21", "note": "[Trans-l-isomer of Example III, trans-l-N-methyl-4-phenyl-1,2,3,4-tetrahydro-1-naphthylamine hydrochloride]", "values": [
      {"measurement": "Mean Rectal Temperature, Temp. (° C.) ±S.D.", "setting": "[1]", "value": "27.5 ± 2.9", "unit": "°C"},
      {"measurement": "stimulant effect", "setting": "[3]; 10 and 32 mg./kg. (i.p.)", "value": "little evidence of a stimulant effect"}
    ]},
    {"molecule": "CNCCCN1c2ccccc2CCc2ccccc21", "note": "[desmethylimipramine, reference compound]", "values": [
      {"measurement": "hyperactive response", "setting": "[3]; i.p.", "value": "failed to elicit any hyperactive response whatsoever"}
    ]},
    {"molecule": "CNCCCC1c2ccccc2C=Cc2ccccc21", "note": "[protriptlyine, protriptyline, reference compound]", "values": [
      {"measurement": "hyperactive response", "setting": "[3]; i.p.", "value": "failed to elicit any hyperactive response whatsoever"}
    ]}
  ]
}
